Data on 19 molecules can be found in ChEMBL document CHEMBL1122267, “Pyridazinones. 3. Synthesis, antisecretory, and antiulcer activities of 2-cyanoguanidine derivatives” (1983).

Molecules are shown by their SMILES. The source made the active and inactive calls. The rule behind the calls is not given here. Bounds are passed on as bounds.

Assay [1] is filed under the species Rattus norvegicus. Kind of assay: Effective dose for 50 percent inhibition of gastric antisecretory activity in the 4 hr pylorus-ligated rat. It is filed as functional. The settings on record: Stomach.
Assay [2] relates to Rattus norvegicus. Nature of the assay: Percent inhibition of gastric antisecretory activity in the 4 hr pylorus-ligated rat to that of control at a dose of 100 mg/kg. The format is functional. To be noted: Stomach, read-out: Inhibition.
Assay [3] relates to Rattus norvegicus. Nature of the assay: Compound was evaluated for antiulcer activity in rats due to stress after oral administration. The format is functional.
Assay [4] relates to Rattus norvegicus. Nature of the assay: Percent inhibition of gastric antisecretory activity in the 4 hr pylorus-ligated rat to that of control at a dose of 100 mg/kg; not statistically significant. The format is functional. The settings on record: Stomach.
The subject of assay [5] is Rattus norvegicus. Kind of assay: Compound was evaluated for antiulcer activity due to stress in rats after oral administration; not statistically significant. It is filed as functional, organism-based.
Assay [6] has as its system Rattus norvegicus. Nature of the assay: Compound was evaluated for antiulcer activity in rats after oral administration. (stress ulcer); NS means not statistically significant. The format is functional, organism-based.

Broadly, the ED50 is the dose that gives a 50% effect, or the effect in half of the subjects. `CC/N=C(\NC#N)NCCSCn1nc(-c2ccccc2)ccc1=O`: the results for the median effective dose (ED50) in assay [1] and in assay [3] were < 100 mg/kg and 63.1 mg/kg, respectively. In addition, the inhibition in vivo at 100 mg/kg in assay [2] is 50.1%.
As to `C/N=C(\NC#N)NCCSCCCn1nc(-c2ccccc2)ccc1=O`, in assay [4], the inhibition in vivo at 100 mg/kg stood at 18.2%. In addition, in assay [3], the ED50 was > 100 mg/kg.
Take `CCC/N=C(\NC#N)NCCSCn1nc(-c2ccccc2)ccc1=O`: the ED50 in assay [1] is > 100 mg/kg; in assay [3], 97.6 mg/kg. Moreover, the inhibition in vivo at 100 mg/kg in assay [2] came to 37.3%.
With `CC/N=C(\NC#N)NCCSCCn1nc(-c2ccccc2)ccc1=O`, the ED50 in assay [1] is < 100 mg/kg. For the same molecule, in assay [2], the inhibition in vivo at 100 mg/kg came out at 50.8%.
Taken in the same sequence, the figures for `C/N=C(\NC#N)NCCSCn1nc(-c2ccc(C)cc2)ccc1=O` were < 53.8 mg/kg and 62.5%.
The corresponding values for `CC/N=C(\NC#N)NCCSCn1nc(C)ccc1=O` are > 100 mg/kg and 26.7%.
Taken in the same sequence, the figures for `CCC/N=C(\NC#N)NCCSCCn1nc(-c2ccccc2)ccc1=O` were > 100 mg/kg and 33.5%.
For `C/N=C(\NC#N)NCCOCn1nc(-c2ccccc2)ccc1=O`, the ED50 in assay [1] is < 82.3 mg/kg; in assay [3] it was > 100 mg/kg. The inhibition in vivo at 100 mg/kg in assay [2] is 60.6%.
As for `C/N=C(\NC#N)NCCCCOCn1nc(-c2ccccc2)ccc1=O`, in assay [5], the ED50 entry is “inactive”. Moreover, the ED50 in assay [1] is > 100 mg/kg. Also, the inhibition in vivo at 100 mg/kg in assay [2] was 32.8%.
Take `CC/N=C(\NC#N)NCCSCCCn1nc(-c2ccccc2)ccc1=O`: in assay [4], the inhibition in vivo at 100 mg/kg was determined as 22.9%.
Regarding `C/N=C(\NC#N)NCCCOCn1nc(-c2ccccc2)ccc1=O`, the ED50 result in assay [5] is “inactive”. For the same molecule, the ED50 in assay [1] is < 100 mg/kg. The inhibition in vivo at 100 mg/kg in assay [2] is 49.8%.
For `C/N=C(\NC#N)NCCSCn1nc(-c2ccc(Cl)cc2)ccc1=O`, the ED50 in assay [1] is < 39.1 mg/kg. Further, the inhibition in vivo at 100 mg/kg in assay [2] turned out to be 70.3%.
Turning to `C/N=C(\NC#N)NCCSCn1nc(-c2ccccc2)ccc1=O`, the ED50 in assay [1] is < 30.5 mg/kg; in assay [3], 28.5 mg/kg. The inhibition in vivo at 100 mg/kg in assay [2] was found to be 83.3%.
As for `C/N=C(\NC#N)NCCSCCn1nc(-c2ccccc2)ccc1=O`, the ED50 is < 80 mg/kg in assay [1] and 77.6 mg/kg in assay [3]. In addition, the inhibition in vivo at 100 mg/kg in assay [2] was found to be 58.3%.
The corresponding values for `C/N=C(\NC#N)NCCSCn1nc(C)ccc1=O` are > 100 mg/kg, > 100 mg/kg and 30%.
Regarding `C/N=C(\NC#N)NCCSCn1nc(N(C)C)ccc1=O`, the inhibition in vivo at 100 mg/kg in assay [4] came to 6.9%.
`C/N=C(\NC#N)NCCSCn1nc(N2CCOCC2)ccc1=O`: in assay [4], the inhibition in vivo at 100 mg/kg is -12.5%. In addition, the ED50 entry in assay [6] was “inactive”.
In the case of `CN/C(=N\CCSCc1nc[nH]c1C)NC#N` [CIMETIDINE], the ED50 came out at 60.3 mg/kg in assay [1] and 43.2 mg/kg in assay [3]. Besides, in assay [2], the inhibition in vivo at 100 mg/kg was determined as 80.6%.
Taken in the same sequence, the figures for `C/N=C(\NC#N)NCCCCn1nc(-c2ccccc2)ccc1=O` were 32.4 mg/kg, 38.5 mg/kg and 79%.
